Measurements as given in patent US11969428B2, “Methods and pharmaceutical compositions for treating lymphoid malignancy” (priority 2011, dated 2024).

How the values were obtained:
Experiment in all cases: Ambit KinomeScan screening
Type in all cases: binding
Conditions in all cases: CAL-130 10 μM
FGFR2 = target: T1, FGFR2 (Homo sapiens, UniProt P21802)
T1 construct: unspecified tag; purchased Ambit (KinomeScan screening service)
Summary of the method: (§1)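 In this 353-kinase competition screen, the compound (CAL-130, 10 μM) competed with an immobilized ligand for each tagged kinase. Percentages of control binding above 35% were treated as no hits.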

NEK5 = target: T2, NEK5 (Homo sapiens, UniProt Q6P3R8)
T2 construct: unspecified tag; purchased Ambit (KinomeScan screening panel)
Summary of the method: as §1

GRK7 = target: T3, GRK7 (Homo sapiens, UniProt Q8WTQ7)
T3 construct: unspecified tag ('tagged kinases'); purchased Ambit (KinomeScan screening service)
Summary of the method: as §1

FGR = target: T4, FGR (Homo sapiens, UniProt P09769)
T4 construct: unspecified tag; purchased Ambit (KinomeScan screening service)
Summary of the method: as §1

PKN1 = target: T5, PKN1 (Homo sapiens, UniProt Q16512)
T5 construct: purchased Ambit (KinomeScan screening service)
Summary of the method: as §1

PLK1 = target: T6, PLK1 (Homo sapiens, UniProt P53350)
T6 construct: purchased Ambit (KinomeScan screening service)
Summary of the method: as §1

MAST1 = target: T7, MAST1 (Homo sapiens, UniProt Q9Y2H9)
T7 construct: purchased Ambit (KinomeScan screening)
Summary of the method: as §1

EPHA2 = target: T8, EPHA2 (Homo sapiens, UniProt P29317)
T8 construct: purchased Ambit (KinomeScan screening service)
Summary of the method: as §1

CAMK2A = target: T9, CAMK2A (Homo sapiens, UniProt Q9UQM7)
T9 construct: unspecified tag ("tagged kinases"); purchased Ambit (KinomeScan screening)
Summary of the method: as §1

p38-α = target: T10, p38-α (Homo sapiens, UniProt Q16539)
T10 construct: purchased Ambit (KinomeScan screening service)
Summary of the method: as §1

PRKCH = target: T11, PRKCH (Homo sapiens, UniProt P24723)
T11 construct: purchased Ambit (KinomeScan screening service)
Summary of the method: as §1

LIMK2 = target: T12, LIMK2 (Homo sapiens, UniProt P53671)
T12 construct: unspecified tag ('tagged kinases'); purchased Ambit (KinomeScan screening service)
Summary of the method: as §1

DCAMKL2 = target: T13, DCAMKL2 (Homo sapiens, UniProt Q8N568)
T13 construct: unspecified tag ("tagged kinases"); purchased Ambit (KinomeScan screening service)
Summary of the method: as §1

FGFR3(G697C) = target: T14, FGFR3(G697C) (Homo sapiens, UniProt P22607, G697C)
T14 construct: unspecified tag; purchased Ambit (KinomeScan screening service)
Summary of the method: as §1

PIM1 = target: T15, PIM1 (Homo sapiens, UniProt P11309)
T15 construct: unspecified tag; purchased Ambit (KinomeScan screening panel)
Summary of the method: as §1

CAMK2D = target: T16, CAMK2D (Homo sapiens, UniProt Q13557)
T16 construct: purchased Ambit (KinomeScan screening)
Summary of the method: as §1

MEK3 = target: T17, MEK3 (Homo sapiens, UniProt P46734)
T17 construct: purchased Ambit (KinomeScan screening)
Summary of the method: as §1

GRK4 = target: T18, GRK4 (Homo sapiens, UniProt P32298)
T18 construct: unspecified tag ('tagged kinases'); purchased Ambit (KinomeScan screening service)
Summary of the method: as §1

SIK2 = target: T19, SIK2 (Homo sapiens, UniProt Q9H0K1)
T19 construct: tag, kind not specified; purchased Ambit (KinomeScan screening service)
Summary of the method: as §1

MST1 = target: T20, MST1 (Homo sapiens, UniProt Q13043)
T20 construct: unspecified tag ('tagged kinases'); purchased Ambit (KinomeScan screening)
Summary of the method: as §1

MEK6 = target: T21, MEK6 (Homo sapiens, UniProt P52564)
T21 construct: purchased Ambit (KinomeScan screening)
Summary of the method: as §1

HIPK4 = target: T22, HIPK4 (Homo sapiens, UniProt Q8NE63)
T22 construct: Ambit (KinomeScan screening)
Summary of the method: as §1

TGFBR2 = target: T23, TGFBR2 (Homo sapiens, UniProt P37173)
T23 construct: unspecified tag (tagged kinase); purchased Ambit (KinomeScan screening)
Summary of the method: as §1

CLK1 = target: T24, CLK1 (Homo sapiens, UniProt P49759)
T24 construct: purchased Ambit (KinomeScan screening service)
Summary of the method: as §1

ABL1(E255K) = target: T25, ABL1(E255K) (Homo sapiens, UniProt P00519, E255K)
T25 construct: unspecified tag ("tagged kinases"); purchased Ambit (KinomeScan screening)
Summary of the method: as §1

MYO3A = target: T26, MYO3A (Homo sapiens, UniProt Q8NEV4)
T26 construct: unspecified tag; purchased Ambit (KinomeScan screening panel)
Summary of the method: as §1

BRSK2 = target: T27, BRSK2 (Homo sapiens, UniProt Q8IWQ3)
T27 construct: unspecified tag ("tagged kinases"); purchased Ambit (KinomeScan screening)
Summary of the method: as §1

SRPK1 = target: T28, SRPK1 (Homo sapiens, UniProt Q96SB4)
T28 construct: tag, kind not specified; purchased Ambit (KinomeScan screening service)
Summary of the method: as §1

AKT2 = target: T29, AKT2 (Homo sapiens, UniProt P31751)
T29 construct: purchased Ambit (KinomeScan screening)
Summary of the method: as §1

DCAMKL1 = target: T30, DCAMKL1 (Homo sapiens, UniProt O15075)
T30 construct: unspecified tag ("tagged kinases"); purchased Ambit (KinomeScan screening service)
Summary of the method: as §1

JNK1 = target: T31, JNK1 (Homo sapiens, UniProt P45983)
T31 construct: purchased Ambit (KinomeScan screening)
Summary of the method: as §1

ACVR1 = target: T32, ACVR1 (Homo sapiens, UniProt Q04771)
T32 construct: unspecified tag ("tagged kinases"); purchased Ambit (KinomeScan screening)
Summary of the method: as §1

MLK2 = target: T33, MLK2 (Homo sapiens, UniProt Q02779)
T33 construct: unspecified tag ('tagged kinases'); purchased Ambit (KinomeScan screening)
Summary of the method: as §1

CHEK1 = target: T34, CHEK1 (Homo sapiens, UniProt O14757)
T34 construct: purchased Ambit (KinomeScan screening service)
Summary of the method: as §1

RAF1 = target: T35, RAF1 (Homo sapiens, UniProt P04049)
T35 construct: tag (kind not specified); purchased Ambit (KinomeScan screening service)
Summary of the method: as §1

KIT(V559D) = target: T36, KIT(V559D) (Homo sapiens, UniProt P10721, V559D)
T36 construct: purchased Ambit (KinomeScan screening)
Summary of the method: as §1

Measured: Percent of Control Binding

T15 sequence (P11309 whole entry): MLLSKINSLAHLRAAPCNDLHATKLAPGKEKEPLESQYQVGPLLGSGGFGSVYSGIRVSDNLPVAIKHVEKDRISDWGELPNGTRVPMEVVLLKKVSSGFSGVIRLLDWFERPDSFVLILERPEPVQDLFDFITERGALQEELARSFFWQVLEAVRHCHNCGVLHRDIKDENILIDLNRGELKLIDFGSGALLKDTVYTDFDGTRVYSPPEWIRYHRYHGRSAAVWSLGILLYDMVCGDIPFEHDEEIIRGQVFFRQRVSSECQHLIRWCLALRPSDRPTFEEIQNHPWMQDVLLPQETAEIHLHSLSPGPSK
T34 sequence (O14757 whole entry): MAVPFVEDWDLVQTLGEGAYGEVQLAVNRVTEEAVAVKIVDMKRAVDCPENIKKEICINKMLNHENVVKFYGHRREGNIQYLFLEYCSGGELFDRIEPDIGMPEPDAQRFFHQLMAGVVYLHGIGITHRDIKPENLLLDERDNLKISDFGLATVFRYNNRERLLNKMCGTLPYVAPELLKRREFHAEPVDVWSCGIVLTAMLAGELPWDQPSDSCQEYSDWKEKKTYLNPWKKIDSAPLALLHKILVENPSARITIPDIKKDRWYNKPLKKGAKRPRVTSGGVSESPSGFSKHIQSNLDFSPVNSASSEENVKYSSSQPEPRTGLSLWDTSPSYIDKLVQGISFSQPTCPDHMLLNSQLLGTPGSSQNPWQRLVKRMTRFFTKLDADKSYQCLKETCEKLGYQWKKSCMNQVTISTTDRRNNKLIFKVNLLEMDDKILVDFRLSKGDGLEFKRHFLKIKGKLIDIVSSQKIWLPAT
T4 sequence (P09769 whole entry): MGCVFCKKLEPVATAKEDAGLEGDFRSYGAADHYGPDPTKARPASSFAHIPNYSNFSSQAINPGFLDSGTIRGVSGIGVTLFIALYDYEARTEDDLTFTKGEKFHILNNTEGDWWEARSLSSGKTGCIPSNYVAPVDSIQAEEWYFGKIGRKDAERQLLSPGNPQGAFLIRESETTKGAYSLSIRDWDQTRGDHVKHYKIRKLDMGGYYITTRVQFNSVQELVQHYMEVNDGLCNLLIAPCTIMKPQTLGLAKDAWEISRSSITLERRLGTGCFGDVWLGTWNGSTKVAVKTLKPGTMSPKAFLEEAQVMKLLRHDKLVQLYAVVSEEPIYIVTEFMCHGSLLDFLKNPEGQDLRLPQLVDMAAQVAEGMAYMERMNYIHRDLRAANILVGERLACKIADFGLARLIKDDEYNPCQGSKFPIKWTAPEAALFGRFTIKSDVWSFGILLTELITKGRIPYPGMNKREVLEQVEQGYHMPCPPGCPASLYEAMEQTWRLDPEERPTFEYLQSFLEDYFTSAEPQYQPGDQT
T8 sequence (P29317 24-976): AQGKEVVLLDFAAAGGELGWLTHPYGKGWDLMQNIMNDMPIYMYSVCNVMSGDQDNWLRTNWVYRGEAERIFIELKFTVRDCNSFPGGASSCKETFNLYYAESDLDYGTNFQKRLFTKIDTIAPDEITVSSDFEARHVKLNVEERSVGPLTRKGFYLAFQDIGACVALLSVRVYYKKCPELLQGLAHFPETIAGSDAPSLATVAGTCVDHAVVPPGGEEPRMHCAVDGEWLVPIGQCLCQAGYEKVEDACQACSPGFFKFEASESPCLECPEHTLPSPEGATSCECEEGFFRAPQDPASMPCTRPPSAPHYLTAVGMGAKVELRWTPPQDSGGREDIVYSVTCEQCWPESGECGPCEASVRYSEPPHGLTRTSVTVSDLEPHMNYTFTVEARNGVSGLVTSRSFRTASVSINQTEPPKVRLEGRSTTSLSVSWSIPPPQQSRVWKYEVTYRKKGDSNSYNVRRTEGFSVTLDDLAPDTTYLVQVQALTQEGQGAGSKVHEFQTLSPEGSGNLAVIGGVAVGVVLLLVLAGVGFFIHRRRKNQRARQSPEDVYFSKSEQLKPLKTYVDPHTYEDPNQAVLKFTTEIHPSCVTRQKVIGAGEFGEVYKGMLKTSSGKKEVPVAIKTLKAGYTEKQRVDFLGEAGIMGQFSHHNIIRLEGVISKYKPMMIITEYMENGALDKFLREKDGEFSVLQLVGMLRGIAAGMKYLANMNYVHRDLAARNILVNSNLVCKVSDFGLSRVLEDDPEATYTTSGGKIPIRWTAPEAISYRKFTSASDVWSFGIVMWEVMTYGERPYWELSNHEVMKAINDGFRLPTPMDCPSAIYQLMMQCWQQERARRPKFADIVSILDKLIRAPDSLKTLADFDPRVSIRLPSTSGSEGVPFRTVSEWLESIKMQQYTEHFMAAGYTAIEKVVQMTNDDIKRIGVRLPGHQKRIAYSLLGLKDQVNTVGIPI
T9 sequence (Q9UQM7 whole entry): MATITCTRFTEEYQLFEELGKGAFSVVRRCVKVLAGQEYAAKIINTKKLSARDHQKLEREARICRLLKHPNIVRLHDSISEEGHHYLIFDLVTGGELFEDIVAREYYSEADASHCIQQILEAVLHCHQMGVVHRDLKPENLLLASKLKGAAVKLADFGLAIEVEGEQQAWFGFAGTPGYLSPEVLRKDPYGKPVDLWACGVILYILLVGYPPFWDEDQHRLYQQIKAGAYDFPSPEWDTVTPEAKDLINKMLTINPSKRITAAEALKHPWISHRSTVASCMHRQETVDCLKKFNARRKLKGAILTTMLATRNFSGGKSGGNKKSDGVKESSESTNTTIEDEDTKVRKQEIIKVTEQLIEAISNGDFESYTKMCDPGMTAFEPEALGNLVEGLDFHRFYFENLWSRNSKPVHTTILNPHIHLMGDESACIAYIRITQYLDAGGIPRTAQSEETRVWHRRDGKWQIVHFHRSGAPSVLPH
T5 sequence (Q16512 whole entry): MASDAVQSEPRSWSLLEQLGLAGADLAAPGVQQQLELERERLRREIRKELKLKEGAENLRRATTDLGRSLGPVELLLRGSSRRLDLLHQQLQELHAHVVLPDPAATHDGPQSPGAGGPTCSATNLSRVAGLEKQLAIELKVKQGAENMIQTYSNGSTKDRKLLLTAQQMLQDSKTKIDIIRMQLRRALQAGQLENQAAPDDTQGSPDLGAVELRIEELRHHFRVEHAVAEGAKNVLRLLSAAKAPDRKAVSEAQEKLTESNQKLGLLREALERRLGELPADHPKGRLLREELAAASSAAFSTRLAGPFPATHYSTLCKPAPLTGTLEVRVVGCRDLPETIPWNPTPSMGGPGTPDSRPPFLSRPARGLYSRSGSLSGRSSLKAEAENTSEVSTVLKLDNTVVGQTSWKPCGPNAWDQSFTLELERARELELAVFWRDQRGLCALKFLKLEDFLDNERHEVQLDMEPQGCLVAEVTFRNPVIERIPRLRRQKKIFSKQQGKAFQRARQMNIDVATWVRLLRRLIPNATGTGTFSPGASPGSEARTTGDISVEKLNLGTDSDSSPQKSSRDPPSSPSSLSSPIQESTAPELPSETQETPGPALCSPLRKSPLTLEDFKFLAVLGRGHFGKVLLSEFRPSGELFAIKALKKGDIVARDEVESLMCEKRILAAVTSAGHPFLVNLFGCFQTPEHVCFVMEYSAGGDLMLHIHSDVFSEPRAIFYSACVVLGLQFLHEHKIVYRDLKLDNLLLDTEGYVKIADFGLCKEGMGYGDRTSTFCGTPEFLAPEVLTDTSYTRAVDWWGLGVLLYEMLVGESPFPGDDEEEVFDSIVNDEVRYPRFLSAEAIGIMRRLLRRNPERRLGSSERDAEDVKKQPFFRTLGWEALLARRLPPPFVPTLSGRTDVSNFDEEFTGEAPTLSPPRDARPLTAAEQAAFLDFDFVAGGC
T31 sequence (P45983 whole entry): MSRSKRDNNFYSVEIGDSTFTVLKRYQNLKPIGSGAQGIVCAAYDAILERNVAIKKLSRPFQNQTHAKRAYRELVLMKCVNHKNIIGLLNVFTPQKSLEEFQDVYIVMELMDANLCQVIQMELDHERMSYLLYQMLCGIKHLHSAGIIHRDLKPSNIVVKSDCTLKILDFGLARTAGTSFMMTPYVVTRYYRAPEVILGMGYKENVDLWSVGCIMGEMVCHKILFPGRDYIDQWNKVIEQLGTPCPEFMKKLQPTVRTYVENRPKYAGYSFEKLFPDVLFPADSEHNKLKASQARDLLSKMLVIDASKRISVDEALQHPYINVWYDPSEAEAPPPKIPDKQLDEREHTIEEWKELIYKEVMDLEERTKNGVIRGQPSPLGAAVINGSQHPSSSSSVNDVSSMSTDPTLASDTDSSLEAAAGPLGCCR
T35 sequence (P04049 whole entry): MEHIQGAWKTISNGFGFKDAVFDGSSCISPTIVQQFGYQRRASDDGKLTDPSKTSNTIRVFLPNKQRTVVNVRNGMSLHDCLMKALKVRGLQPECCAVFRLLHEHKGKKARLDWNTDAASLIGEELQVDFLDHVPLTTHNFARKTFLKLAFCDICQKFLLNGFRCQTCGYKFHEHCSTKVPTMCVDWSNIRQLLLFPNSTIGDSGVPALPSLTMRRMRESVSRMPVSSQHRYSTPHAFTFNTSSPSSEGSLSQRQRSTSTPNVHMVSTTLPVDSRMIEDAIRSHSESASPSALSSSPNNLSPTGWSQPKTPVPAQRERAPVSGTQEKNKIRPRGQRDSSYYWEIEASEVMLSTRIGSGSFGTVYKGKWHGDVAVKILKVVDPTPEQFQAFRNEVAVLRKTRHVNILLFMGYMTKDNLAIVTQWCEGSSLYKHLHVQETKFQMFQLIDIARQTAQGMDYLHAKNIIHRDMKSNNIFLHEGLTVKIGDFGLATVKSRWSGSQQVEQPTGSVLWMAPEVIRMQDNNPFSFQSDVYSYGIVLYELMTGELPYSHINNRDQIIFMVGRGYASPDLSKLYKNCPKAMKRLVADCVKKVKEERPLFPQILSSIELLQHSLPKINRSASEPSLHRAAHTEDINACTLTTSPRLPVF

Cc1ccccc1-n1c(C(C)Nc2nc(N)nc3nc[nH]c23)nc2cccc(C)c2c1=O (stereo not drawn) [CAL-130]
100%: all assays above
